In US8592421B2, “Cyclic bioisosters of purine system derivatives and a pharmaceutical composition based thereon” (priority 2003, dated 2013):
Marks after values point to notes of the source that are not given here.

How the values were obtained:
[1] = Electrochemical activity: polarographic reduction on mercury dripping electrode; type: physicochemical; settings: for number of electrons participating in the reduction reaction: calculated with Geirovsky-Ilkovich equation; for i: 2.0% sodium chloride background, 9·10^−4 M; for i / −E1/2: 37° C., forward trace, average for the group of compounds; for −E1/2: vs SCE; for half-wave potential more positive at reverse stroke compared to forward stroke: polarograms of reverse stroke
plasma hemostasis [2] = experiment: Thrombin time after intravenous administration; type: in vivo, rabbit
Method: The investigations were performed on 72 rabbits of the “Chinchilla” breed with a mass of 2.5±0.3 kg, who were administered which solutions of compounds 2, 15, 21, 37 in doses of 15, 30 and 60 mg/kg intravenously. The experiments included the thrombin-test (series No. 7300) and the coagulability-test (series No. 5000) purchased from the scientific-and-production association (SPA) “Renam”, thromboplastin (series No. 240600) and calcium chloride purchased from the SPA “MedioLab”
(§1) The static parameters of the blood and plasma coagulation (partial activated thromboplastin time, thrombin time, maximum coagulation activity (test for auto coagulation) were determined using the Behnk Electronic coagulometer (Germany). The operating principle of this instrument is based on the fact that the formed blood clot breaks the contacts of the pulse counter in the flask-pin circuit, said pin permanently oscillating in a vertical plane. The moment of formation of the clot is registered by stopping the stop watch hand.
(§2) The measurements were effected at a constant temperature of 37° C. maintained by a temperature control unit.
The “thrombin time” characterizes the rate of transformation of fibrinogen into fibrin. It was determined by measuring the coagulation time of plasma deprived of thrombocytes under the effect of thrombin standardized by the control plasma.
0.2 ml of a thrombin solution was added to 0.2 ml of the test blood plasma of experimental animals, from whom the blood was taken 15, 30, 60 and 120 minutes after the intravenous administration of compounds 2, 15, 21, 37 according to the invention in doses of 15, 30, 60 mg/kg incubated for 1 minute at a temperature of 37° C. and the time of formation of clot T2 in seconds in a coagulometer of the Behnk Electronic Company (Germany).

plasma hemostasis [3] = experiment: Prothrombin time after intravenous administration; type: in vivo, rabbit; settings: for effect on the prothrombin time index: doses of 15.0, 30.0, 60.0 mg/kg
Method: as §1, §2
The method of its determination is based on estimation of the coagulation of citrate or oxalic blood plasma, when it is mixed with thromboplastin and a calcium chloride solution. Since under these conditions the time of formation of the clot depends on the content of II, VII, IX and X factors in the investigated plasma sample, now the test is called “thromboplastin time by Quick” or “activity thromboplastin complex”.
Citrate blood containing 1 part of citrate per 9 parts of native blood was centrifuged at 3000 rev/min for 10 minutes to obtain plasma deprived of thrombocytes.
Added into a test tube in a water bath were 0.1 ml of plasma and 0.1 ml of a thromboplastin solution.

[4] = test system: synthase of nitrogen oxide (NOC); experiment: Morphine abstinence model: activity of synthase of nitrogen oxide (NOC), radiometric [3H]L-citrulline method; type: in vivo, rats Wistar; settings: 20.0 mg/kg intramuscularly; for Activity of NOC: Mesencephalon: control 2.18 ± 0.09; for Activity of NOC: Hypothalamus: control 5.37 ± 0.20
[5] = 15.0 mg/kg intravenously, after 15 minutes, control 15.8
[6] = 15.0 mg/kg intravenously, after 30 minutes, control 15.8
[7] = 15.0 mg/kg intravenously, after 60 minutes, control 15.8
[8] = 15.0 mg/kg intravenously, after 120 minutes, control 15.8
[9] = 30.0 mg/kg intravenously, after 15 minutes, control 14.7
[10] = 30.0 mg/kg intravenously, after 30 minutes, control 14.7
[11] = 30.0 mg/kg intravenously, after 60 minutes, control 14.7
[12] = 30.0 mg/kg intravenously, after 120 minutes, control 14.7
[13] = 60.0 mg/kg intravenously, after 15 minutes, control 15.2
[14] = 60.0 mg/kg intravenously, after 30 minutes, control 15.2
[15] = 60.0 mg/kg intravenously, after 60 minutes, control 15.2
[16] = 60.0 mg/kg intravenously, after 120 minutes, control 15.2
[17] = 15.0 mg/kg intravenously, after 15 minutes, control 11.8 ± 0.1
[18] = 15.0 mg/kg intravenously, after 30 minutes, control 11.8 ± 0.1
[19] = 15.0 mg/kg intravenously, after 60 minutes, control 11.8 ± 0.1
[20] = 15.0 mg/kg intravenously, after 120 minutes, control 11.8 ± 0.1
[21] = 30.0 mg/kg intravenously, after 15 minutes, control 11.2 ± 0.1
[22] = 30.0 mg/kg intravenously, after 30 minutes, control 11.2 ± 0.1
[23] = 30.0 mg/kg intravenously, after 60 minutes, control 11.2 ± 0.1
[24] = 30.0 mg/kg intravenously, after 120 minutes, control 11.2 ± 0.1
[25] = 60.0 mg/kg intravenously, after 15 minutes, control 12.0 ± 0.1
[26] = 60.0 mg/kg intravenously, after 30 minutes, control 12.0 ± 0.1
[27] = 60.0 mg/kg intravenously, after 60 minutes, control 12.0 ± 0.1
[28] = 60.0 mg/kg intravenously, after 120 minutes, control 12.0 ± 0.1

Row | Compound | number of electrons participating in the reduction reaction [1] | i ([1]; pH 7.0) [mkA] | −E1/2 ([1]; pH 7.0) [V] | i ([1]; pH 7.2) [mkA] | −E1/2 ([1]; pH 7.2) [V] | i ([1]; pH 7.4) [mkA] | −E1/2 ([1]; pH 7.4) [V] | i ([1]; pH 7.6) [mkA] | −E1/2 ([1]; pH 7.6) [V] | thrombin time, T2 (plasma hemostasis [2]; [5]) | thrombin time, T2 (plasma hemostasis [2]; [6]) | thrombin time, T2 (plasma hemostasis [2]; [7]) | thrombin time, T2 (plasma hemostasis [2]; [8]) | thrombin time, T2 (plasma hemostasis [2]; [9]) | thrombin time, T2 (plasma hemostasis [2]; [10]) | thrombin time, T2 (plasma hemostasis [2]; [11]) | thrombin time, T2 (plasma hemostasis [2]; [12]) | thrombin time, T2 (plasma hemostasis [2]; [13]) | thrombin time, T2 (plasma hemostasis [2]; [14]) | thrombin time, T2 (plasma hemostasis [2]; [15]) | also measured
1 | Nc1ncc2c(=O)[nH][nH]c(=O)c2n1 [Compound 36, 2-amino-pyrimido[4,5-d]-6H-pyridazine-5,8-dione] | 3.5 | 0.30 ± 0.05 | 0.08 ± 0.02 | 0.26 ± 0.02 | 0.085 ± 0.015 | 0.30 ± 0.03 | 0.085 ± 0.02 | 0.30 ± 0.02 | 0.09 ± 0.02 |  |  |  |  |  |  |  |  |  |  |  | 
2 | Nc1cnc2c(=O)n([C@@H]3O[C@H](CO)[C@@H](O)[C@H]3O)[nH]c(=O)c2n1.[Na] [Compound 21, sodium salt of 3-amino-7-(β-D-ribofuranosile)pyrazine[2,3-d]-6H-pyridazine-5,8-dione] |  |  |  |  |  |  |  |  |  | 16.4* s | 17.7* s | 16.1* s | 15.7* s | 17.9* s | 18.8* s | 19.0* s | 15.6* s | 16.2* s | 17.7* s | 16.3* s | thrombin time, T2 (plasma hemostasis [2]; [16]): 15.7* s; prothrombin time, T (plasma hemostasis [3]; [17]): 11.4 ± 0.2 s; prothrombin time, T (plasma hemostasis [3]; [18]): 11.5 ± 0.1 s; prothrombin time, T (plasma hemostasis [3]; [19]): 11.3 ± 0.1 s; prothrombin time, T (plasma hemostasis [3]; [20]): 11.5 ± 0.2 s; prothrombin time, T (plasma hemostasis [3]; [21]): 11.2 ± 0.1 s; prothrombin time, T (plasma hemostasis [3]; [22]): 11.2 ± 0.1 s; prothrombin time, T (plasma hemostasis [3]; [23]): 11.3 ± 0.2 s; prothrombin time, T (plasma hemostasis [3]; [24]): 11.2 ± 0.2 s; prothrombin time, T (plasma hemostasis [3]; [25]): 12.0 ± 0.2 s; prothrombin time, T (plasma hemostasis [3]; [26]): 11.8 ± 0.1 s; prothrombin time, T (plasma hemostasis [3]; [27]): 12.1 ± 0.1 s; prothrombin time, T (plasma hemostasis [3]; [28]): 12.0 ± 0.2 s; effect on the prothrombin time index (plasma hemostasis [3]): have no effect on the prothrombin time index
3 | O=c1[nH][nH]c(=O)c2ncccc12.[Li] [Compound 6, lithium salt of pyrido[2,3-d]-6H-pyridazine-5,8-dione] |  |  |  |  |  |  |  |  |  |  |  |  |  |  |  |  |  |  |  |  | Activity of NOC: Mesencephalon ([4]; Control + Compound): 2.84 ± 0.31 pmol/min/mg of protein; Activity of NOC: Hypothalamus ([4]; Control + Compound): 5.93 ± 0.27 pmol/min/mg of protein; Activity of NOC: Mesencephalon ([4]; Control + Morphine + compound): 1.99 ± 0.31 pmol/min/mg of protein; Activity of NOC: Hypothalamus ([4]; Control + Morphine + compound): 5.24 ± 0.24 pmol/min/mg of protein
4 | O=c1[nH][nH]c(=O)c2c(Br)ncnc12.[K] [Compound 37, potassium salt of 4-bromine-pyrimido[4,5-D]-6H-pyridazine-5,8-dione] |  |  |  |  |  |  |  |  |  | 16.9* s | 18.2* s | 16.3* s | 15.6* s | 19.5* s | 20.3* s | 21.0* s | 15.2* s | 16.6* s | 17.8* s | 16.2* s | thrombin time, T2 (plasma hemostasis [2]; [16]): 15.0* s; prothrombin time, T (plasma hemostasis [3]; [17]): 11.6 ± 0.2 s; prothrombin time, T (plasma hemostasis [3]; [18]): 11.6 ± 0.1 s; prothrombin time, T (plasma hemostasis [3]; [19]): 11.5 ± 0.2 s; prothrombin time, T (plasma hemostasis [3]; [20]): 11.8 ± 0.1 s; prothrombin time, T (plasma hemostasis [3]; [21]): 11.3 ± 0.1 s; prothrombin time, T (plasma hemostasis [3]; [22]): 11.2 ± 0.2 s; prothrombin time, T (plasma hemostasis [3]; [23]): 11.4 ± 0.1 s; prothrombin time, T (plasma hemostasis [3]; [24]): 11.1 ± 0.1 s; prothrombin time, T (plasma hemostasis [3]; [25]): 12.1 ± 0.1 s; prothrombin time, T (plasma hemostasis [3]; [26]): 12.0 ± 0.1 s; prothrombin time, T (plasma hemostasis [3]; [27]): 12.1 ± 0.2 s; prothrombin time, T (plasma hemostasis [3]; [28]): 12.0 ± 0.1 s; effect on the prothrombin time index (plasma hemostasis [3]): have no effect on the prothrombin time index; Activity of NOC: Mesencephalon ([4]; Control + Compound): 2.62 ± 0.27 pmol/min/mg of protein; Activity of NOC: Hypothalamus ([4]; Control + Compound): 5.61 ± 0.22 pmol/min/mg of protein; Activity of NOC: Mesencephalon ([4]; Control + Morphine + compound): 1.85 ± 0.30 pmol/min/mg of protein; Activity of NOC: Hypothalamus ([4]; Control + Morphine + compound): 5.59 ± 0.22 pmol/min/mg of protein
5 | O=c1[nH]n([C@@H]2O[C@H](CO)[C@@H](O)[C@H]2O)c(=O)c2nc(O)cnc12.[Na].[Na] [Compound 23, disodium salt of 2-hydroxy-7-(β-D-ribofuranosile)pyrazine[2,3—Cl]-6H-pyridazine-5,8-dione] | 3.72 | 0.32 ± 0.03 | 0.16 ± 0.02 | 0.33 ± 0.04 | 0.19 ± 0.02 | 0.34 ± 0.03 | 0.175 ± 0.01 | 0.34 ± 0.02 | 0.16 ± 0.015 |  |  |  |  |  |  |  |  |  |  |  | half-wave potential more positive at reverse stroke compared to forward stroke [1]: 20.0 mV
6 | Nc1ccnc2c(=O)n([C@@H]3O[C@H](CO)[C@@H](O)[C@H]3O)[nH]c(=O)c12 [Compound 2, 4-amino-7-(β-D-ribofuranosile)pyrido[2,3-d]-6H-pyridazine-5,8-dione] |  |  |  |  |  |  |  |  |  | 16.2* s | 17.0* s | 16.0* s | 15.3* s | 17.8* s | 18.4* s | 19.2* s | 15.3* s | 16.0* s | 16.9* s | 15.9* s | thrombin time, T2 (plasma hemostasis [2]; [16]): 15.3* s; prothrombin time, T (plasma hemostasis [3]; [17]): 11.7 ± 0.2 s; prothrombin time, T (plasma hemostasis [3]; [18]): 11.5 ± 0.2 s; prothrombin time, T (plasma hemostasis [3]; [19]): 11.4 ± 0.2 s; prothrombin time, T (plasma hemostasis [3]; [20]): 11.7 ± 0.1 s; prothrombin time, T (plasma hemostasis [3]; [21]): 11.1 ± 0.2 s; prothrombin time, T (plasma hemostasis [3]; [22]): 11.0 ± 0.1 s; prothrombin time, T (plasma hemostasis [3]; [23]): 11.3 ± 0.1 s; prothrombin time, T (plasma hemostasis [3]; [24]): 11.2 ± 0.2 s; prothrombin time, T (plasma hemostasis [3]; [25]): 12.0 ± 0.1 s; prothrombin time, T (plasma hemostasis [3]; [26]): 11.9 ± 0.2 s; prothrombin time, T (plasma hemostasis [3]; [27]): 12.1 ± 0.2 s; prothrombin time, T (plasma hemostasis [3]; [28]): 11.9 ± 0.1 s; effect on the prothrombin time index (plasma hemostasis [3]): have no effect on the prothrombin time index
7 | O=c1[nH][nH]c(=O)c2nccnc12.[Li] [Compound 25, lithium salt of pyrazine[2,3-d]-6H-pyridazine-5,8-dione] | 3.72 | 0.32 ± 0.03 | 0.16 ± 0.02 | 0.33 ± 0.04 | 0.19 ± 0.02 | 0.34 ± 0.03 | 0.175 ± 0.01 | 0.34 ± 0.02 | 0.16 ± 0.015 |  |  |  |  |  |  |  |  |  |  |  | half-wave potential more positive at reverse stroke compared to forward stroke [1]: 20.0 mV; Activity of NOC: Mesencephalon ([4]; Control + Compound): 2.65 ± 0.43 pmol/min/mg of protein; Activity of NOC: Hypothalamus ([4]; Control + Compound): 5.88 ± 0.27 pmol/min/mg of protein; Activity of NOC: Mesencephalon ([4]; Control + Morphine + compound): 1.97 ± 0.27 pmol/min/mg of protein; Activity of NOC: Hypothalamus ([4]; Control + Morphine + compound): 5.23 ± 0.27 pmol/min/mg of protein
